Key:
[1] = test system: L1210; assay: Effect of compound on cellular cycle of L1210 leukemia cell; non specific; type: functional, cell-based; conditions: Mus musculus
[2] = test system: L1210; assay: The compound was evaluated in vitro for its antiproliferative activity against the murine L1210 leukemia cell; type: functional, cell-based; conditions: Mus musculus

SMILES | Effect [1] | IC50 [2] [µM]
CN(C)CCNC1=CC2=NCCc3c[nH]c(c32)C1=O | non specific | 0.3
O=C1C(NCCc2ccc(O)cc2)=CC2=NCCc3c[nH]c1c32 | non specific | 2.1
O=C1C(NCCN2CCCC2)=CC2=NCCc3c[nH]c1c32 | non specific | 0.38
O=C1C(NCCc2c[nH]c3ccccc23)=CC2=NCCc3c[nH]c1c32 | non specific | 5.3
NC1=CC2=NCCc3c[nH]c(c32)C1=O [MAKALUVAMINE I] | non specific | 0.25
